The record followed here is patent publication US10844023B2 (Washington University, priority 2017, dated 2020).

A short description of series [1]: Solubility of library compounds in DMSO. The following applies: stock concentration of 10 mM in DMSO. Type of series: physicochemical. How it is done:
A pharmacophore model was generated based on the interactions of HR1 and HR2 domains in the calculated structural model of Mfn2 in the closed conformation. The key features included hydrophobic interactions involving Mfn2 HR1: Val372 and Met376, and aromatic interactions and hydrogen bonding involving Mfn2 HR1 His380. […] A library comprising ˜14 million commercially available compounds was prepared in silico and evaluated using PHASE to fit these criteria. Top ranked hits were clustered, and filtered based on pharmacological properties using Qikprop. The top 55 (see TABLE 4) commercially available small molecules conforming to the model were selected for functional screening and purchased in 1 mg aliquots. Each compound was dissolved to a stock concentration of 10 mM in DMSO and applied to Mfn2 null MEFs overnight at a final concentration of […]. Eleven of the library members were not soluble in DMSO at the required concentration. The 44 fully soluble compounds were screened in groups of 6 at a time for cytotoxicity (calcein AM/ethidium homodimer staining; ThermoFisher LIVE/DEAD Assay cat #L3224) and fusogenicity (increase in mitochondrial aspect ratio; MitoTracker Orange staining) compared to cells treated overnight with […] of the parent HR1 367-384 mitofusin agonist peptide (positive control) or vehicle (DMSO). Images were acquired by confocal microscopy. Each compound was scored for fusogenicity (see e.g., FIG. 24A) and % cell death (see e.g., FIG. 24B). Pharmacophore model fit generally correlated with actual fusogenic activity (Pearson correlation coefficient r=0.214; see e.g., FIG. 24A, inset; TABLE 4).

In another series the test system is Mfn2 null MEFs. As to the kind of experiment: Mitochondrial elongation (aspect ratio) fusogenicity assay. Type of series: cell-based, mouse. The arrangement: % long compare to B: dose or concentration left out as unconfirmed. The note with it: for Aspect ratio (MEAN ± SEM) / % long compare to B: Mfn2 null MEFs; for Aspect ratio (MEAN ± SEM): overnight, treatment with 1 μM compound (footnote); for Fusogenicity Rank: rank order of aspect ratio among 44 soluble library compounds; for % long compare to B: mitochondrial elongation relative to Cpd B (B01 = 100), compound overnight as printed (FIG. 48).

The structures appear in SMILES notation.

With `Cc1cc(C)nc(SCC(C)Cn2c(N3CCC(C(N)=O)CC3)nc3c2c(=O)[nH]c(=O)n3C)n1` (centres unmarked) [1-(7-{3-[(4,6-dimethylpyrimidin-2-yl)sulfanyl]-2-methylpropyl}-3-methyl-2,6-dioxo-2,3,6,7-tetrahydro-1H-purin-8-yl)piperidine-4-carboxamide], the “Solubility in DMSO at required concentration” value (“Solubility in DMSO” for short) in series [1] is “Insol- uble”.

`CCC(Sc1nc2cc(OC)c(OC)cc2c2nc(CCn3nc(C)cc3C)nn12)C(=O)Nc1ccc(F)cc1` (centres unmarked) [2-({2-[2-(3,5-dimethyl-1H-pyrazol-1-yl)ethyl]-8,9-dimethoxy-[1,2,4]triazolo[1,5-c]quinazolin-5-yl]sulfanyl)-N-(4-fluorophenyl)butanamide]: in series [1], the “Solubility in DMSO” value is “Insol- uble”.

Turning to `CC(=O)NC12CC3CC(C1)CC(C(=O)NCCSCc1ccc(C)cc1)(C3)C2` [3-acetamido-N-(2-{[(4-methylphenyl)methyl]sulfanyl}ethyl)adamantane-1-carboxamide], in series [1], the “Solubility in DMSO” value is given as “Insol- uble”.

Turning to `Cc1ccc(C(=O)C(C)Sc2nnc3c(=O)n(-c4ccccc4)ccn23)cc1C` (centres unmarked) [3-{[1-(3,4-dimethylphenyl)-1-oxopropan-2-yl]sulfanyl}-7-phenyl-7H,8H-[1,2,4]triazolo[4,3-a]pyrazin-8-one], the “Solubility in DMSO” value in series [1] is given as “Insol- uble”.

Take `Cc1ccc(C(=O)C(C)Sc2nnc3c(=O)n(-c4ccc(Br)cc4)ccn23)cc1C` (centres unmarked) [7-(4-bromophenyl)-3-{[1-(3,4-dimethylphenyl)-1-oxopropan-2-yl]sulfanyl}-7H,8H-[1,2,4]triazolo[4,3-a]pyrazin-8-one]: the “Solubility in DMSO” value in series [1] is recorded as “Insol- uble”.

As for `COc1cc(Cl)c(C)cc1N1C(=O)[C@@H]2C[C@H]1CN2Cc1cccn1-c1ncccn1` [(1S,4S)-2-(4-chloro-2-methoxy-5-methylphenyl)-5-{[1-(pyrimidin-2-yl)-1H-pyrrol-2-yl]methyl}-2,5-diazabicyclo[2.2.1]heptan-3-one], the “Solubility in DMSO” value in series [1] is reported as “Insol- uble”.

`Cc1ccc(CSCCNC(=O)C2CCN(c3ccc4nnc(C(F)(F)F)n4n3)CC2)cc1` [N-(2-{[(4-methylphenyl)methyl]sulfanyl}ethyl)-1-[3-(trifluoromethyl)-[1,2,4]triazolo[4,3-b]pyridazin-6-yl]piperidine-4-carboxamide]: the “Solubility in DMSO” value in series [1] is on record as “Insol- uble”.

Consider `CC1CCCCC1NC(=O)NCCSCc1ccccc1` (centres unmarked) [drawing 224, 1-[2-(benzylsulfanyl)ethyl]-3-(2-methylcyclohexyl)urea], for which, in the series with Mfn2 null MEFs, the “Aspect ratio (MEAN ± SEM)” value was determined as 6.8 ± 0.6 and the “Fusogenicity Rank” value is on record as 4.

On to `S=C(NCCSCc1ccco1)NC1CC2CCC1C2` (centres unmarked) [drawing 225, 1-{bicyclo[2.2.1]heptan-2-yl}-3-(2-{[(furan-2-yl)methyl]sulfanyl}ethyl)thiourea], for which, in the series with Mfn2 null MEFs, the “Aspect ratio (MEAN ± SEM)” value was determined as 3.7 ± 0.9 and the “Fusogenicity Rank” value is given as 23.

On to `CC(Sc1nnc(N2CCOCC2)n1Cc1ccccc1)C(=O)Nc1ccc2c(c1)OCCO2` (centres unmarked) [drawing 226, 2-{[4-benzyl-5-(morpholin-4-yl)-4H-1,2,4-triazol-3-yl]sulfanyl}-N-(2,3-dihydro-1,4-benzodioxin-6-yl)propanamide], for which, in the series with Mfn2 null MEFs, the “Aspect ratio (MEAN ± SEM)” value came out at 6.0 ± 0.1 and the “Fusogenicity Rank” value is listed as 6.

For the compound `CC(Sc1nc(CN2CCOCC2)nc2ccccc12)C(=O)Nc1cccc(C(F)(F)F)c1` (centres unmarked) [drawing 227, 2-({2-[(morpholin-4-yl)methyl]quinazolin-4-yl}sulfanyl)-N-[3-(trifluoromethyl)phenyl]propanamide], in the series with Mfn2 null MEFs, the “Aspect ratio (MEAN ± SEM)” value is 5.6 ± 0.6 and the “Fusogenicity Rank” value was 7.

As to `Cc1ccc(-n2c(SC(C)C(=O)Nc3ccnn3C(C)C)nnc2N2CCOCC2)cc1` (centres unmarked) [drawing 229, 2-{[4-(4-methylphenyl)-5-(morpholin-4-yl)-4H-1,2,4-triazol-3-yl]sulfanyl}-N-[1-(propan-2-yl)-1H-pyrazol-5-yl]propanamide], in the series on Mfn2 null MEFs, the “Aspect ratio (MEAN ± SEM)” value is 4.1 ± 0.9 and the “Fusogenicity Rank” value stood at 15.

`CCCc1noc(C(C)Sc2nc3cc(C)ccc3[nH]2)n1` (centres unmarked) [drawing 231, 5-methyl-2-{[1-(3-propyl-1,2,4-oxadiazol-5-yl)ethyl]sulfanyl}-1H-1,3-benzodiazole]: in the series on Mfn2 null MEFs, the “Aspect ratio (MEAN ± SEM)” value came to 4.0 ± 1.0 and the “Fusogenicity Rank” value is reported as 17.

Consider `CCC(C)C1N=C2c3ccccc3N=C(SC(C)C(=O)Nc3cc(OC)cc(OC)c3)N2C1=O` (centres unmarked) [drawing 234, 2-{[2-(butan-2-yl)-3-oxo-2H,3H-imidazo[1,2-c]quinazolin-5-yl]sulfanyl}-N-(3,5-dimethoxyphenyl)propanamide], for which, in the series on Mfn2 null MEFs, the “Aspect ratio (MEAN ± SEM)” value was determined as 3.2 ± 0.3 and the “Fusogenicity Rank” value was 32.

For `CCC(C)NC(=O)c1ccccc1NC(=O)C(C)Sc1ccc(C)cc1` (centres unmarked) [drawing 236, N-(butan-2-yl)-2-{2-[(4-methylphenyl)sulfanyl]propanamido}benzamide], in the series on Mfn2 null MEFs, the “Aspect ratio (MEAN ± SEM)” value worked out at 3.3 ± 0.4 and the “Fusogenicity Rank” value was 29.

As to `c1ccc(CSCCc2nc(C3CCOC3)no2)cc1` (centres unmarked) [drawing 238, 5-[2-(benzylsulfanyl)ethyl]-3-(oxolan-3-yl)-1,2,4-oxadiazole], in the series on Mfn2 null MEFs, the “Aspect ratio (MEAN ± SEM)” value is 3.4 ± 0.6 and the “Fusogenicity Rank” value is listed as 28.

In the case of `CC(Sc1ccc(Br)cc1)C(=O)Nc1ccc2c(c1)OCCO2` (centres unmarked) [drawing 239, 2-[(4-bromophenyl)sulfanyl]-N-(2,3-dihydro-1,4-benzodioxin-6-yl)propanamide], in the series with Mfn2 null MEFs, the “Aspect ratio (MEAN ± SEM)” value amounted to 3.2 ± 0.5 and the “Fusogenicity Rank” value is on record as 33.

On to `Cc1ccc(C(=O)C(C)Sc2nnc3c(=O)n(-c4ccc(C)c(C)c4)ccn23)cc1C` (centres unmarked) [drawing 240, 7-(3,4-dimethylphenyl)-3-{[1-(3,4-dimethylphenyl)-1-oxopropan-2-yl]sulfanyl}-7H,8H-[1,2,4]triazolo[4,3-a]pyrazin-8-one], for which, in the series with Mfn2 null MEFs, the “Aspect ratio (MEAN ± SEM)” value is 3.9 ± 0.8 and the “Fusogenicity Rank” value amounted to 19.

Turning to `O=C(NCCSCc1ccsc1)C1CC2CCCC(C1)C2=O` (centres unmarked) [drawing 241, 9-oxo-N-(2-{[(thiophen-3-yl)methyl]sulfanyl}ethyl)bicyclo[3.3.1]nonane-3-carboxamide], in the series on Mfn2 null MEFs, the “Aspect ratio (MEAN ± SEM)” value is 4.4 ± 0.6 and the “Fusogenicity Rank” value stood at 14.

In the case of `CC(Sc1nnc(N2CCOCC2)n1Cc1ccccc1)C(=O)Nc1ccc2c(c1)OCO2` (centres unmarked) [drawing 242, N-(2H-1,3-benzodioxol-5-yl)-2-{[4-benzyl-5-(morpholin-4-yl)-4H-1,2,4-triazol-3-yl]sulfanyl}propanamide], in the series with Mfn2 null MEFs, the “Aspect ratio (MEAN ± SEM)” value came out at 2.5 ± 0.6 and the “Fusogenicity Rank” value worked out at 43.

With `Cc1ccc(N2C[C@@H]3CC[C@H](C2)N(Cc2ccccn2)C3=O)nn1` [drawing 245, (1S,5R)-3-(6-methylpyridazin-3-yl)-6-[(pyridin-2-yl)methyl]-3,6-diazabicyclo[3.2.2]nonan-7-one], in the series on Mfn2 null MEFs, the “Aspect ratio (MEAN ± SEM)” value amounted to 3.0 ± 0.4 and the “Fusogenicity Rank” value was 36.

In the case of `Cc1ccc(SC2CCN(Cc3cc4n(n3)CCNC4)CC2)cc1` [drawing 246, 4-[(4-methylphenyl)sulfanyl]-1-({4H,5H,6H,7H-pyrazolo[1,5-a]pyrazin-2-yl}methyl)piperidine], in the series with Mfn2 null MEFs, the “Aspect ratio (MEAN ± SEM)” value was found to be 2.9 ± 0.2 and the “Fusogenicity Rank” value was 39.

For the compound `CC(/N=N/C(=N)SC1CC(=O)N(c2cccc(C(=O)O)c2)C1=O)c1ccccc1` (centres unmarked) [drawing 247, 3-(2,5-dioxo-3-{[(E)-N-[(1-phenylethyl)imino]carbamimidoyl]sulfanyl}pyrrolidin-1-yl)benzoic acid], in the series with Mfn2 null MEFs, the “Aspect ratio (MEAN ± SEM)” value amounted to 3.3 ± 0.0 and the “Fusogenicity Rank” value amounted to 31.

For the compound `CCOc1ccccc1NC(=O)CSCc1cc(=O)c2ccc(C)c(C)c2[nH]1` [drawing 248, 2-{[(7,8-dimethyl-4-oxo-1,4-dihydroquinolin-2-yl)methyl]sulfanyl}-N-(2-ethoxyphenyl)acetamide], in the series on Mfn2 null MEFs, the “Aspect ratio (MEAN ± SEM)” value is 3.7 ± 0.6 and the “Fusogenicity Rank” value was determined as 24.

In the case of `O=C(CSCC(=O)N1CCCc2ccccc21)Nc1ccccc1` [drawing 249, 2-{[2-oxo-2-(1,2,3,4-tetrahydroquinolin-1-yl)ethyl]sulfanyl}-N-phenylacetamide], in the series with Mfn2 null MEFs, the “Aspect ratio (MEAN ± SEM)” value turned out to be 2.4 ± 0.4 and the “Fusogenicity Rank” value is on record as 44.

On to `Cc1ccc(NC(=O)CC2SC(NC(c3ccc(C(C)C)cc3)c3c(O)[nH]c(=O)[nH]c3=O)=NC2=O)c(C)c1` (centres unmarked) [drawing 252, N-(2,4-dimethylphenyl)-2-(2-{[(6-hydroxy-2,4-dioxo-1,2,3,4-tetrahydropyrimidin-5-yl)[4-(propan-2-yl)phenyl]methyl]amino}-4-oxo-4,5-dihydro-1,3-thiazol-5-yl)acetamide], for which, in the series with Mfn2 null MEFs, the “Aspect ratio (MEAN ± SEM)” value came out at 3.1 ± 0.3 and the “Fusogenicity Rank” value is 35.

Consider `O=C(NCCCCc1ccccc1)Nc1ccccc1` [pA, 3-phenyl-1-(4-phenylbutyl)urea], for which the “% long compare to B” value in the series on Mfn2 null MEFs was determined as 59%.

With `NC(=O)c1c(NC(=O)CCCc2ccccc2)sc2c1CCC2` [pB, 2-(4-phenylbutanamido)-4H,5H,6H-cyclopenta[b]thiophene-3-carboxamide], the “% long compare to B” value in the series on Mfn2 null MEFs came out at 6%.
